Results published in patent publication US12077503B2, “Substituted cyclic amides and their use as herbicides” (FMC CORPORATION, priority 2015, dated 2024).

How the values were obtained:
Assay type in all cases: in vivo
[1] = system: rice (Oryra sativa); test: Test B flooded paddy test; settings: Oryza sativa, 250 g ai/ha, Flood; 0 to 100 scale where 0 is no effect and 100 is complete control; read-out: Rice plant response rating
In short: (§1)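 Percent control, visually estimated after 13–15 d in the greenhouse on a 0–100 basis, compares treated pots with untreated ones; compound was put into paddy water 3 cm above the soil when plants had two leaves.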

[2] = system: ducksalad (Heteranthera limosa); test: Test B flooded paddy test; settings: Heteranthera limosa, 250 g ai/ha, Flood; 0 to 100 scale where 0 is no effect and 100 is complete control; read-out: Ducksalad plant response rating
In short: as §1

[3] = system: barnyardgrass (Echinochloa crus-galli); test: Test B flooded paddy test; settings: Echinochloa crus-galli, 250 g ai/ha, Flood; 0 to 100 scale where 0 is no effect and 100 is complete control; read-out: Barnyardgrass plant response rating
In short: as §1

[4] = system: sedge, umbrella (small-flower umbrella sedge, Cyperus difformis); test: Test B flooded paddy test; settings: Cyperus difformis, 250 g ai/ha, Flood; 0 to 100 scale where 0 is no effect and 100 is complete control; read-out: Sedge, Umbrella plant response rating
In short: as §1

[5] = system: pigweed (Amaranthus retroflexus); test: Test A postemergence; settings: Amaranthus retroflexus, post-emergence, 240 h, 125 g ai/ha, postemergence, visual injury vs untreated controls after approx. 10 d; 0 = no effect, 100 = complete control; read-out: Pigweed plant response rating (0 to 100 scale)
In short: (§2)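 Treatment is preemergence as a directed soil spray after planting, or postemergence at the one- to two-leaf stage, with test chemical in a non-phytotoxic solvent mixture plus surfactant. Plants stay in the greenhouse about 10 d before visual injury scoring on a 0 to 100 scale versus untreated controls.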

[6] = system: ragweed (common ragweed, Ambrosia elatior); test: Test A postemergence; settings: Ambrosia artemisiifolia, post-emergence, 240 h, 125 g ai/ha, postemergence, visual injury vs untreated controls after approx. 10 d; 0 = no effect, 100 = complete control; read-out: Ragweed plant response rating (0 to 100 scale)
In short: as §2

[7] = system: Galium (catchweed bedstraw, Galium aparine); test: Test A postemergence; settings: Galium, post-emergence, 240 h
In short: as §2

[8] = system: corn (Zea mays); test: Test A postemergence; settings: Zea mays, post-emergence, 240 h
In short: as §2

[9] = system: Kochia (Kochia scoparia); test: Test A postemergence; settings: Bassia scoparia, post-emergence, 240 h
In short: as §2

[10] = system: blackgrass (Alopecurus myosuroides); test: Test A postemergence; settings: Alopecurus myosuroides, post-emergence, 240 h
In short: as §2

[11] = system: wheat (Triticum aestivum); test: Test A postemergence; settings: Triticum aestivum, post-emergence, 240 h, 125 g ai/ha, postemergence, visual injury vs untreated controls after approx. 10 d; 0 = no effect, 100 = complete control; read-out: Wheat plant response rating (0 to 100 scale)
In short: as §2

[12] = system: barnyardgrass (Echinochloa crus-galli); test: Test A postemergence; settings: Echinochloa crus-galli, post-emergence, 240 h
In short: as §2

[13] = system: giant foxtail (Setaria faberii); test: Test A postemergence; settings: Setaria faberi, post-emergence, 240 h
In short: as §2

[14] = system: ryegrass, Italian (Italian ryegrass, Lolium multiflorum); test: Test A postemergence; settings: Lolium multiflorum, post-emergence, 240 h, 125 g ai/ha, postemergence, visual injury vs untreated controls after approx. 10 d; 0 = no effect, 100 = complete control; read-out: Ryegrass, Italian plant response rating (0 to 100 scale)
In short: as §2

[15] = system: pigweed (Amaranthus retroflexus); test: Test A preemergence; settings: Amaranthus retroflexus, pre-emergence, 240 h, 0 to 100 scale where 0 is no effect and 100 is complete control, read-out: Pigweed plant response rating
[16] = system: ragweed (common ragweed, Ambrosia elatior); test: Test A preemergence; settings: Ambrosia artemisiifolia, pre-emergence, 240 h, 0 to 100 scale where 0 is no effect and 100 is complete control, read-out: Ragweed plant response rating
In short: as §2

[17] = system: Kochia (Kochia scoparia); test: Test A preemergence; settings: Bassia scoparia, pre-emergence, 240 h, 0 to 100 scale where 0 is no effect and 100 is complete control, read-out: Kochia plant response rating
In short: as §2

[18] = system: barnyardgrass (Echinochloa crus-galli); test: Test A preemergence; settings: Echinochloa crus-galli, pre-emergence, 240 h, 0 to 100 scale where 0 is no effect and 100 is complete control, read-out: Barnyardgrass plant response rating
In short: as §2

[19] = system: giant foxtail (Setaria faberii); test: Test A preemergence; settings: Setaria faberi, pre-emergence, 240 h, 0 to 100 scale where 0 is no effect and 100 is complete control, read-out: Foxtail, Giant plant response rating
In short: as §2

[20] = system: ryegrass, Italian (Italian ryegrass, Lolium multiflorum); test: Test A preemergence; settings: Lolium multiflorum, pre-emergence, 240 h, 0 to 100 scale where 0 is no effect and 100 is complete control, read-out: Ryegrass, Italian plant response rating
In short: as §2

[21] = 125 g ai/ha, preemergence, visual injury rating, approximately 10 d

Structure (SMILES): COc1ccc(C(F)(F)F)cc1[C@H]1CN(C)C(=O)[C@@H]1C(=O)Nc1cccc(F)c1F [Compound 1184]
- pest or weed control at 250 g/ha [1]: 15%
- pest or weed control at 250 g/ha [2]: 95%
- pest or weed control at 250 g/ha [3]: 90%
- pest or weed control at 250 g/ha [4]: 0%
- pest or weed control at 125 g/ha [5]: 0%
- pest or weed control at 125 g/ha [6]: 0%
- pest or weed control at 125 g/ha ([7]; 125 g ai/ha, postemergence, visual injury vs untreated controls after approx. 10 d, 0 = no effect, 100 = complete control, read-out: Galium plant response rating (0 to 100 scale)): 20%
- pest or weed control at 31 g/ha ([7]; Postemergence, 31 g ai/ha, visual injury after approx. 10 d, 0 to 100 scale, 0 no effect, 100 complete control, read-out: Plant response rating, Galium): 0%
- plant injury at 125 g/ha ([8]; 125 g ai/ha, postemergence, visual injury vs untreated controls after approx. 10 d, 0 = no effect, 100 = complete control, read-out: Corn plant response rating (0 to 100 scale)): 40%
- Corn plant response rating (crop injury, 0 = no effect, 100 = complete kill) at 31 g/ha ([8]; Postemergence, 31 g ai/ha, visual injury after approx. 10 d, 0 to 100 scale, 0 no effect, 100 complete control): 50%
- pest or weed control at 125 g/ha ([9]; 125 g ai/ha, postemergence, visual injury vs untreated controls after approx. 10 d, 0 = no effect, 100 = complete control, read-out: Kochia plant response rating (0 to 100 scale)): 0%
- pest or weed control at 31 g/ha ([9]; Postemergence, 31 g ai/ha, visual injury after approx. 10 d, 0 to 100 scale, 0 no effect, 100 complete control, read-out: Plant response rating, Kochia): 0%
- pest or weed control at 125 g/ha ([10]; 125 g ai/ha, postemergence, visual injury vs untreated controls after approx. 10 d, 0 = no effect, 100 = complete control, read-out: Blackgrass plant response rating (0 to 100 scale)): 60%
- pest or weed control at 31 g/ha ([10]; Postemergence, 31 g ai/ha, visual injury after approx. 10 d, 0 to 100 scale, 0 no effect, 100 complete control, read-out: Plant response rating, Blackgrass): 30%
- plant injury at 125 g/ha [11]: 60%
- pest or weed control at 125 g/ha ([12]; 125 g ai/ha, postemergence, visual injury vs untreated controls after approx. 10 d, 0 = no effect, 100 = complete control, read-out: Barnyardgrass plant response rating (0 to 100 scale)): 80%
- pest or weed control at 31 g/ha ([12]; Postemergence, 31 g ai/ha, visual injury after approx. 10 d, 0 to 100 scale, 0 no effect, 100 complete control, read-out: Plant response rating, Barnyardgrass): 70%
- pest or weed control at 125 g/ha ([13]; 125 g ai/ha, postemergence, visual injury vs untreated controls after approx. 10 d, 0 = no effect, 100 = complete control, read-out: Foxtail, Giant plant response rating (0 to 100 scale)): 80%
- pest or weed control at 31 g/ha ([13]; Postemergence, 31 g ai/ha, visual injury after approx. 10 d, 0 to 100 scale, 0 no effect, 100 complete control, read-out: Plant response rating, Foxtail, Giant): 80%
- pest or weed control at 125 g/ha [14]: 30%
- pest or weed control at 31 g/ha ([15]; 31 g ai/ha, Preemergence): 0%
- pest or weed control at 125 g/ha [15, 21]: 0%
- pest or weed control at 31 g/ha ([16]; 31 g ai/ha, Preemergence): 0%
- pest or weed control at 125 g/ha [16, 21]: 0%
- pest or weed control at 31 g/ha ([17]; 31 g ai/ha, Preemergence): 0%
- pest or weed control at 125 g/ha [17, 21]: 0%
- pest or weed control at 31 g/ha ([18]; 31 g ai/ha, Preemergence): 90%
- pest or weed control at 125 g/ha [18, 21]: 100%
- pest or weed control at 31 g/ha ([19]; 31 g ai/ha, Preemergence): 80%
- pest or weed control at 125 g/ha [19, 21]: 90%
- pest or weed control at 31 g/ha ([20]; 31 g ai/ha, Preemergence): 40%
- pest or weed control at 125 g/ha [20, 21]: 50%
